# Several values for one entry are separate records, joined by “and”; a condition that tells them apart may be missing. Identical values can stand only once. Entries after “also recorded” stand apart in the source; their conditions may differ.
# Assays:
# [1] = Solubility in PBS, FaSSIF, FeSSIF; assay type: physicochemical
# [2] = Stability under stress storage conditions (XRPD); assay type: physicochemical; settings: 40 °C, 75% RH open and closed container or 60 °C, one month
# [3] = test system: P. falciparum Dd2-B2 and NF54-HGL; experiment: In vitro selection of drug-resistant parasites; assay type: cell-based, Plasmodium falciparum
# Method: Drug media was changed daily until cultures were cleared and every other day subsequently. […] Recrudescence was monitored by flow cytometry on an Accuri C6 (BD Biosciences) using BD C6 Plus for 60 days using SYBR Green and MitoTracker Deep Red FM (Life Technologies) as nuclear stain and vital dye, respectively, and data were analyzed using FlowJo (Supplementary Fig. 23). […] Whole-genome sequencing was performed to test for single nucleotide polymorphisms (SNPs) or copy number variations.
# Renal excretion in dogs = assay type: in vivo, dog; settings: for Concentration (ng/ml) in urine: dog urine, individual dogs 1-3
# Method: A blood sample from the saphenous vein was collected into heparinized capillary tubes at multiple intervals between 0.25 and 24 h after dosing. Subsequently, samples were spun down at 1640 g for 5-10 min at 4 °C within 30 min after collection and plasma was collected. […] Urine was collected following an intravenous dose in both rat and dog, allowing renal clearance to be estimated. Human renal clearance was estimated from dog renal clearance as previously described[40] and other human PK parameters were predicted using allometric scaling and/or in vitro clearance data. PK parameters were calculated by naïve pooled approach using WinNonLin software (Phoenix, version 6.3).
# [4] = test system: human primary hepatocytes; experiment: Primary hepatocyte viability (CellTiter-Blue), human; assay type: cell-based; settings: for %Viability: Human primary hepatocytes
# Method: Safety studies were performed by commercial services using their standard protocols. […] Genotoxicity was investigated using the Ames test (Bacterial Reverse Mutation Assay) (Covance Laboratories Ltd, North Yorkshire, England). In vitro mammalian cell micronucleus screening assay was studied in human peripheral blood lymphocytes (BioReliance Corporation, Rockville, USA). Cardiotoxicity was determined against the hERG channel in an automated patch clamp assay using the Qpatch or against the hNaV 1.5, hKV 1.5 and hCaV 1.2 using a manual patch-clamp technique (Metrion Biosciences, Cambridge, UK). Cytotoxicity in human and rat primary hepatocytes was assessed using the CellTiter-Blue assay performed by commercial services (KaLy-Cell). The viability of HepG2 cells was monitored through the addition of 1 mM resazurin. Following 6 h incubation, the relative amount of reduced resazurin was detected in a fluorimeter and compared to the assay controls (vehicle: 0.1% DMSO and positive control: 10 µM puromycin).
# [5] = 8-day Dose Range Finding (DRF) rat study; assay type: in vivo, Wistar Han rats
# Text: See the summary of the study design in Supplementary Table 31. Nine-week-old Wistar (Crl:WI (Han)) rats were obtained from Charles River Laboratories (Domaine des Oncins, Saint-Germain-Nuelles, France). […] Animals were examined daily for any altered clinical signs, body weights, and food consumption. Blood samples were taken at different timepoints after the test item administration, and toxicokinetic exposure assessed under the defined experimental conditions and analyzed using Phoenix (version 6.4 and 1.4) (Supplementary Table 32). Measurements included hematology and clinical chemistry measurements. Animals were euthanized and necropsied at the end of the dosing period. At necropsy, major organ systems and tissues were collected and weighed and then examined for gross lesions as well as for microscopic changes.
# [6] = test system: human G6PD-A-deficient RBCs; experiment: Hemolytic toxicity in NSG mice engrafted with G6PD-deficient human RBCs; settings: for Hematocrit / Spleen weight: individual mice
# Method: Hemolytic toxicity was determined in female NSG mice (Jackson Laboratories) using erythrocytes from a G6PD-A-deficient blood donor (0.4 u/g hemoglobin).
# [7] = 10 mg/kg group, day 0, individual mice
# [8] = 10 mg/kg group, day 4, individual mice
# [9] = 10 mg/kg group, day 7, individual mice
# [10] = 25 mg/kg group, day 0, individual mice
# [11] = 25 mg/kg group, day 4, individual mice
# [12] = 25 mg/kg group, day 7, individual mice
# [13] = 50 mg/kg group, day 0, individual mice
# [14] = 50 mg/kg group, day 4, individual mice
# [15] = 50 mg/kg group, day 7, individual mice
smiles,measurement,setting,value
C[C@@H](CNC(=O)[C@H](O)C(C)(C)CO)NC(=O)c1cc(F)c(F)cc1F [MMV693183],solubility,[1]; FaSSIF,25.5 µM
same,solubility,[1]; FeSSIF,25.0 µM
same,solubility,[1]; PBS,7100 µg/mL
same,solubility,[1]; fasted-state simulated intestinal fluid,9200 µg/mL
same,solubility,[1]; fed-state simulated intestinal fluid,9100 µg/mL
same,stability after storage under stress conditions,[2],chemically stable; also recorded: no form-change
same,minimum inoculum for resistance development,[3],10^9
same,Frequency (# of parasite positive flasks or wells),"[3]; 1x10^5 Dd2-B2, 15 nM",0/24
same,Frequency (# of parasite positive flasks or wells),"[3]; 1x10^7 Dd2-B2, 15-22 nM / 10.5-14 nM",0/3
same,Frequency (# of parasite positive flasks or wells),"[3]; 1x10^8 Dd2-B2, 10.5-14 nM",0/3
same,Frequency (# of parasite positive flasks or wells),"[3]; 1x10^9 Dd2-B2, 12-27 nM",3/3
same,Frequency (# of parasite positive flasks or wells),"[3]; NF54, 7 nM",2/2
same,Observed renal plasma clearance,Renal excretion in dogs; Dog,1.0 mL/min/kg
same,Dose in urine,Renal excretion in dogs; Mean,0.0332
same,Total in urine,Renal excretion in dogs; Mean,384 µg
same,Concentration (ng/ml) in urine,Renal excretion in dogs; interval 0 to 4 h,2790 ng/mL and 4550 ng/mL and 7660 ng/mL
same,Concentration (ng/ml) in urine,Renal excretion in dogs; interval 8 to 24 h,6890 ng/mL and 3700 ng/mL
same,drug eliminated in urine,"Renal excretion in dogs; dogs, i.v. 1 mg/kg, dog with 170 ml urine",8.9%
same,Dose in urine,"Renal excretion in dogs; i.v. 1 mg/kg, total per animal 1-3, 1 mg/kg",0.002 and 0.089 and 0.009
same,Total in urine,Renal excretion in dogs; total 0-24 h per animal 1-3,22.32 µg and 1030.9 µg and 98.8 µg
same,%Viability,"[4]; Lot R1323T, 0.1 µM",98%
same,%Viability,"[4]; Lot R1323T, 0.5 µM",92%
same,%Viability,"[4]; Lot R1323T, 1 µM",88%
same,%Viability,"[4]; Lot R1323T, 5 µM",92%
same,%Viability,"[4]; Lot R1323T, 10 µM",99%
same,%Viability,"[4]; Lot S1552T, 0.1 µM",98%
same,%Viability,"[4]; Lot S1552T, 0.5 µM",98%
same,%Viability,"[4]; Lot S1552T, 1 µM",102%
same,%Viability,"[4]; Lot S1552T, 5 µM",97%
same,%Viability,"[4]; Lot S1552T, 10 µM",104%
same,IC50,[4]; primary human hepatocytes,> 10 µM
same,cumulative exposure vs predicted human efficacious exposure,[5]; 30 mg/kg/day group,> 30 fold
same,Liver weight,[5]; 10 and 30 mg/kg/day,Liver weight was unchanged
same,liver histology,[5]; 10 and 30 mg/kg/day,absence of liver microscopic findings
same,Liver weight,"[5]; DRF 10 mg/kg/day, Females",6.6517 g
same,Liver weight,"[5]; DRF 10 mg/kg/day, Males",9.7817 g
same,Liver weight,"[5]; DRF 30 mg/kg/day, Females (two groups)",6.4437 g and 7.2357 g
same,Liver weight,"[5]; DRF 30 mg/kg/day, Males (two groups)",10.7203 g and 9.7543 g
same,Liver weight,"[5]; DRF study, females, 10 mg/kg/day, individual animals",6.951 g and 7.042 g and 5.962 g
same,Liver weight,"[5]; DRF study, females, 30 mg/kg/day (first column headed 30), individual animals, 30 mg/kg/day",7.24 g and 5.849 g and 6.242 g
same,Liver weight,"[5]; DRF study, females, 30 mg/kg/day (second column headed 30), individual animals, 30 mg/kg/day",7.466 g and 7.43 g and 6.811 g
same,Liver weight,"[5]; DRF study, males, 10 mg/kg/day, individual animals",9.171 g and 9.562 g and 10.612 g
same,Liver weight,"[5]; DRF study, males, 30 mg/kg/day (first column headed 30), individual animals, 30 mg/kg/day",10.621 g and 11.894 g and 9.646 g
same,Liver weight,"[5]; DRF study, males, 30 mg/kg/day (second column headed 30), individual animals, 30 mg/kg/day",10.364 g and 10.082 g and 8.817 g
same,NOEL,[5]; eight days,30 mg/kg/day
same,decrease in systemic exposure day 7 vs day 1,[5]; predominantly males at 30 mg/kg/day,up to 4 fold
same,Human RBCs,[6]; [7],72.9% and 76.8% and 80.6% and 72.4%
same,Reticulocytes,[6]; [7],0.38% and 0.65% and 0.32% and 0.87%
same,Human RBCs,[6]; [8],67.9% and 72.1% and 75.9% and 68.6%
same,Reticulocytes,[6]; [8],0.35% and 0.44% and 0.25% and 0.57%
same,Human RBCs,[6]; [9],59.6% and 65.8% and 72.2% and 63.3%
same,Reticulocytes,[6]; [9],0.17% and 0.14% (2×) and 0.35%
same,Hematocrit,[6]; 10 mg/kg group,53.45% and 54.69% and 60.66% and 56.45%
same,Spleen weight,[6]; 10 mg/kg group,0.305 % of body weight and 0.306 % of body weight and 0.265 % of body weight and 0.369 % of body weight
same,Human RBCs,[6]; [10],78.9% and 75.9% and 78.6% and 71.6% and 75.5%
same,Reticulocytes,[6]; [10],0.53% and 0.42% and 0.37% and 0.39% and 0.51%
same,Human RBCs,[6]; [11],77.9% and 71.9% and 76% and 64.1% and 70.3%
same,Reticulocytes,[6]; [11],0.24% (2×) and 0.32% and 0.61% and 0.43%
same,Human RBCs,[6]; [12],77.4% and 67.8% and 68% and 58.3% and 68.8%
same,Reticulocytes,[6]; [12],0.16% and 0.23% and 0.17% and 0.22% and 0.15%
same,Hematocrit,[6]; 25 mg/kg group,61.54% and 73.81% and 62.16% and 56.36% and 57.35%
same,Spleen weight,[6]; 25 mg/kg group,0.362 % of body weight and 0.462 % of body weight and 0.396 % of body weight and 0.366 % of body weight and 0.21 % of body weight
same,Human RBCs,[6]; [13],75.4% (2×) and 77.9% and 80.2% and 74.5%
same,Reticulocytes,[6]; [13],0.4% and 0.55% and 0.42% and 0.47% and 0.58%
same,Human RBCs,[6]; [14],72.3% and 72.5% and 71.7% and 73.2% and 70.5%
same,Reticulocytes,[6]; [14],0.27% and 0.41% and 0.23% and 0.34% and 0.49%
same,Human RBCs,[6]; [15],65.4% and 71.3% and 68.2% and 66% and 66.7%
same,Reticulocytes,[6]; [15],0.2% (2×) and 0.1% (2×) and 0.3%
same,Hematocrit,[6]; 50 mg/kg group,60.66% and 63.64% and 71.67% and 53.85% and 57.63%
same,Spleen weight,[6]; 50 mg/kg group,0.357 % of body weight and 0.427 % of body weight and 0.135 % of body weight and 0.294 % of body weight and 0.382 % of body weight
same,hemolytic toxicity,"[6]; 10, 25, 50 mg/kg for four days",Absence of detectable hemolytic toxicity; also recorded: did not show signs of hemolytic toxicity
